{
  "source": "patent US12508243B2",
  "about": "“Compositions and methods for treating cancer and improving epithelial homeostasis” (The Regents of the University of California, priority 2019, dated 2025)",
  "key": {"[1]": {"tested_on": "TCF/LEF luciferase reporter", "experiment": "TCF/LEF luciferase reporter assay in transduced BEAS2B cells (CHIR-induced)", "assay_type": "cell-based, human", "experimental": "BEAS2B cells (ATCC CRL-9609) were seeded in a 6-well plate and infected with Cignal lentiviral particles containing a TCF/LEF luciferase reporter (Qiagen CLS-018L). Cells were spin infected at 37° C. for one hour using a multiplicity of infection of 20. Cells were selected with 0.6 μg/mL puromycin to isolate stably expressing clones.\n(§1) For luciferase reporter assays conducted outside of the high-throughput drug screen, BEAS2B cells were seeded in a 96-well plate at 20,000 cells per well. The following day, cells were with treated DMSO, 5 μM CHIR99021 (CHIR; Tocris 4423), or 5 μM CHIR plus WIC2 (Key Organics GP-0355), Coumarin (Sigma C4261), or WIC1 for 24 hours. Lysis reactions were conducted using BrightGlo (Promega E1910) and incubated for two minutes at room temperature prior to transferring luminescence reactions to white-bottom, white-walled 96-well plates (Costar). Toxicity assays were conducted by adding Cell Titer Glo reagent (Promega) following manufacturer's protocol. Luminescence readings were conducted using the Clariostar plate reader.\nIn light of the finding that Wnt/β-catenin signaling drives ABSC hyperproliferation, a small molecule inhibitors of the pathway that could restore airway homeostasis. A high-throughput drug screen was established to identify compounds capable of reducing TCF/LEF activity measured by a luciferase reporter induced by CHIR treatment in a 384-well format (FIG. 3A). Briefly, white-bottom 384-well plates (Greiner One) were precoated overnight with 0.01 mg/mL fibronectin from human plasma (Sigma F0895), 0.03 mg/mL rat tail collagen type I (Corning 354249), and 0.01 mg/mL BSA (ThermoFisher BP-9706) diluted in 50 uL of Airway Epithelial Cell Growth Medium (PromoCell C21060). Precoat was then aspirated and washed using 100 μL the BioTek EL406. A custom V&P pin tool mounted to a Beckman FX liquid handler was then used to pin […] of 10 mM stock compound. 2,000 BEAS2B cells per well were then seeded using the Multidrop. Cells were therefore treated with 1% DMSO, 5 μM CHIR, or 5 μM CHIR+10 μM pinned compound and incubated for 24 hours at 37° C. and 5% CO2. […] 25 μL BrightGlo (Promega) was subsequently added to each well using the BioTek EL405 and incubated for 2 minutes prior reading luminescence values with the Envision plate reader (FIG. 3B). […] Z′ factor values were used to assess assay quality and was calculated by: Z′=1-3(SD Total+SDBackground)/(MeanTotal−MeanBackground) where SDTotal and MeanTotal are the standard deviation and mean of signal for CHIR-treated wells, and SDBackground and MeanBackground are the standard deviation and mean of signal for DMSO-treated wells. The Z′ factor value was calculated to be 0.82."}, "[2]": {"tested_on": "BEAS2B cells", "experiment": "Hoechst stain toxicity assay (nuclei count) in BEAS2B cells", "assay_type": "cell-based, human", "settings": "CHIR+10 uM compound, 24 hours"}, "[3]": {"tested_on": "BEAS2B cells", "experiment": "Cell Titer Glo toxicity assay in BEAS2B cells", "assay_type": "cell-based, human", "experimental": "as §1"}, "[4]": {"tested_on": "mouse ABSCs (mABSCs)", "experiment": "EdU proliferation assay in mouse ABSCs, submerged culture", "assay_type": "cell-based", "settings": "1 μM CHIR + 1 μM inhibitor, submerged culture 4 days", "experimental": "(§2) Mouse and human ABSCs were isolated following a previously published method. Briefly, mouse tracheas were dissected, cleaned, and incubated in 16 U/mL dispase for 30 minutes (1 hour for human) at room temperature. Tracheas were then incubated in 0.5 mg/mL DNase for another 30 minutes (1 hour for human) at room temperature. Epithelium was stripped and incubated in 0.1% Trypsin-EDTA for 30 minutes (1 hour for human) shaking at 37° C. to generate a single cell suspension. Isolated cells were passed through a 40 μm strainer and stained with fluorophore-conjugated antibodies against ITGA6 and TROP2. ITGA6+ TROP2+ cells were obtained via FACS that was completed using the BD FACSAria cell sorter.\n(§3) In vitro proliferation was studied using the Click-iT EdU incorporation assay kit (Invitrogen C10337) following the company's protocol. Briefly, mouse and human AB SC cultures were treated with 10 μM EdU 6-8 hours prior to commencing IFs. Cells were fixed with […] for 15 minutes followed by permeabilization in 0.5% Triton-X for 20 minutes. EdU cocktail was incubated for 30 minutes in darkness followed by immunocytochemistry.\n(§4) To determine whether the pathobiology observed in human patients can be modeled in vitro, mouse ABSCs (mABSCs) were treated with GSK3β inhibitor CHIR99021 (CHIR) under submerged culture conditions for 4 days to activate canonical Wnt signaling (FIG. 2A)."}, "[5]": {"tested_on": "human ABSCs", "experiment": "Proliferation of human ABSCs treated with DMSO, CHIR or CHIR+WIC1", "assay_type": "cell-based", "settings": "CHIR+WIC1 vs CHIR", "experimental": "as §2, §3\n(§5) To assess whether WIC1 could reverse Wnt/β-catenin-induced ABSC hyperproliferation, human ABSCs were treated with either DMSO, CHIR, or CHIR+WIC1. […] It was then sought to determine if WIC1 could promote ABSC differentiation to ciliated cells under ALI conditions."}, "[6]": {"tested_on": "mouse ABSCs (mABSCs)", "experiment": "Air-liquid interface (ALI) differentiation assay with mouse ABSCs", "assay_type": "cell-based", "settings": "mABSCs, ALI", "experimental": "(§6) 24-well 6.5 mm transwells with 0.4 μm pore polyester membrane inserts were coated with 0.2 mg/mL collagen type I dissolved in 60% ethanol and allowed to air dry. ABSCs were seeded at 100,000 cells per well and allowed to grow in the submerged phase of culture for 4-5 days with 500 μl media in the basal chamber and 200 μl media in the apical chamber. ALI cultures were then established and culture with only 500 μl media in the basal chamber, and cultures harvested at varying timepoints for immunofluorescence studies. Media was changed every other day and cultures were maintained at 37° C. and 5% C02. ABSCs were treated with the indicated concentrations of GSK3XV (Sigma 361558), CHIR or WIC1.\nMouse ABSCs were grown in MTEC Plus media and MTEC serum-free media during the submerged and ALI phases of culture, respectively. MTEC base media is DMEM/Ham's F12 50/50 (Corning 15090CV). Table S1 and Table S2 indicate the media components and concentrations for MTEC Plus and MTEC serum-free media, respectively.\nMouse and human ABSCs were fixed in […] for 15 minutes followed by permeabilization with 0.50% Triton-X for 10 minutes. Cells were blocked using serum-free protein block (Dako X090930) for one hour at room temperature and overnight primary antibody incubation. Secondary antibodies were incubated for 1 hour in darkness, washed, and mounted using Vectashield hardest mounting medium with DAPI (Vector Labs H-1500). IF images were obtained using an LSM780 or LSM880 Zeiss confocal microscope and composite images generated using Fiji. […]"}, "[7]": {"tested_on": "human ABSCs", "experiment": "Air-liquid interface (ALI) differentiation assay with human ABSCs", "assay_type": "cell-based", "experimental": "as §6\n(§7) Mouse and human ABSCs were fixed in […] for 15 minutes followed by permeabilization with 0.50% Triton-X for 10 minutes. Cells were blocked using serum-free protein block (Dako X090930) for one hour at room temperature and overnight primary antibody incubation. Secondary antibodies were incubated for 1 hour in darkness, washed, and mounted using Vectashield hardest mounting medium with DAPI (Vector Labs H-1500). IF images were obtained using an LSM780 or LSM880 Zeiss confocal microscope and composite images generated using Fiji.\nas §5"}, "[8]": {"tested_on": "p-β-catenin^Y489", "experiment": "Immunofluorescence staining of phosphorylated β-catenin localization in ABSCs", "assay_type": "cell-based, mouse", "settings": "WIC1 added to CHIR-treated cultures", "experimental": "as §7, §4"}, "[9]": {"tested_on": "Wnt signaling target genes CCND1, MYC, CTNNB1", "experiment": "qRT-PCR of downstream Wnt signaling target genes in ABSCs", "assay_type": "cell-based, human", "settings": "ABSCs under ALI conditions", "experimental": "(§8) RNA was isolated with the RNeasy Mini Kit (Qiagen 74104) following manufacturer's protocol and quantified using a NanoDrop Spectrophotometer (ThermoFisher). cDNA synthesis was performed using the TaqMan Reverse Transcription Reagents (ThermoFisher) as indicated by the company. qPCR was then performed using the TaqMan PCR Master Mix (Applied Biosystems) on the StepOne-Plus Real Time PCR System.\nas §5"}, "[10]": {"tested_on": "Trp63", "experiment": "Trp63 expression with CHIR and WIC1 treatment (FIG. 4F)", "assay_type": "cell-based", "settings": "WIC1 treatment of CHIR-induced expression", "experimental": "as §8"}, "[11]": {"tested_on": "TP63", "experiment": "qRT-PCR of TP63 expression in BEAS2B cells", "assay_type": "cell-based, human", "settings": "CHIR plus WIC1", "experimental": "as §8"}},
  "note": "“Also recorded” adds a separate entry of the source.",
  "data": [
    {"molecule": "CCN1CCN(c2ccc(NC(=O)c3cc4ccccc4oc3=O)cc2)CC1", "note": "[WIC1]", "values": [
      {"measurement": "TCF/LEF activity, inhibitor comparison", "setting": "[1]; 100 nM and 1 μM, WIC1, MSAB, LF3, ICG001 compared", "value": "most potent inhibitor"},
      {"measurement": "TCF/LEF luciferase reporter activity", "setting": "[1]; CHIR-induced reporter, single treatment vs CHIR", "value": "decreased TCF/LEF luciferase reporter activity; also recorded: decreases TFC/LEF luciferase reporter activity; also recorded: suppressed TCF/LEF activity"},
      {"measurement": "TCF/LEF luciferase reporter activity, dose course", "setting": "[1]; CHIR-induced reporter, various concentrations", "value": "stepwise decrease in TCF/LEF activity; also recorded: Higher concentrations of WIC1 decrease TFC/LEF luciferase reporter activity to a greater extent"},
      {"measurement": "Toxicity by Hoechst stain", "setting": "[2]", "value": "no toxicity; also recorded: minimal toxicity"},
      {"measurement": "Toxicity by Cell Titer Glo", "setting": "[3]; 10 μM", "value": "non-toxic"},
      {"measurement": "Toxicity by Cell Titer Glo", "setting": "[3]; various concentrations", "value": "minimal toxicity at each concentration"},
      {"measurement": "mABSC proliferation (EdU incorporation)", "setting": "[4]", "value": "decreased mABSC proliferation to a similar degree"},
      {"measurement": "Human ABSC proliferation", "setting": "[5]", "value": "significant reduction in ABSC proliferation; also recorded: reduced Wnt/β-catenin-driven human ABSC hyperproliferation"},
      {"measurement": "Proportion of ciliated cells", "setting": "[6]; 100 nM inhibitor vs DMSO", "value": "induced a greater proportion of ciliated cells"},
      {"measurement": "Percentage of ciliated cells", "setting": "[6]; 1 μM inhibitor vs DMSO", "value": "no effect on the percentage of ciliated cells"},
      {"measurement": "Ciliated cell differentiation", "setting": "[7]; ABSCs, ALI, 100 nM vs DMSO", "value": "significantly induced ciliated cell differentiation; also recorded: increased differentiation to ciliated cells"},
      {"measurement": "Ciliated cell differentiation", "setting": "[7]; in vitro, concentration not given", "value": "promoted ciliated cell differentiation"},
      {"measurement": "Nuclear localization of p-β-catenin^Y489", "setting": "[8]", "value": "decreased the nuclear localization"},
      {"measurement": "mRNA expression of downstream Wnt signaling target genes (CCND1, MYC, CTNNB1)", "setting": "[9]", "value": "decreased mRNA expression"},
      {"measurement": "Trp63 expression", "setting": "[10]", "value": "substantially reversed"},
      {"measurement": "TP63 expression", "setting": "[11]", "value": "reduced"}
    ]}
  ]
}
